According to ChEMBL document CHEMBL1136143, “Synthesis and activity of novel benzoxazole derivatives of mannopeptimycin glycopeptide antibiotics” (2003):
In brackets after ≈: the same amount, converted by molar mass.

How the values were obtained:
Enterococcus sp. = experiment: In vitro minimum inhibitory concentration against Enterococcus species (11 strains, including VRE); type: functional
Enterococcus faecalis [1] = experiment: In vitro minimum inhibitory concentration against vancomycin-susceptible Enterococcus faecalis (GC 4555); type: functional
Enterococcus faecalis [2] = experiment: In vitro minimum inhibitory concentration against vancomycin-resistant Enterococcus faecalis (GC 2242); type: functional
Enterococcus faecalis [3] = experiment: In vitro minimum inhibitory concentration against vancomycin-resistant Enterococcus faecalis (GC 3059); type: functional
Enterococcus faecalis [4] = experiment: In vitro minimum inhibitory concentration against vancomycin-resistant Enterococcus faecalis (GC 6189); type: functional
Enterococcus faecalis [5] = experiment: In vitro minimum inhibitory concentration against vancomycin-susceptible Enterococcus faecalis (GC 2691); type: functional
Enterococcus faecalis [6] = experiment: In vitro minimum inhibitory concentration against vancomycin-susceptible Enterococcus faecalis (GC 4552); type: functional
Enterococcus faecalis [7] = experiment: In vitro minimum inhibitory concentration against vancomycin-susceptible Enterococcus faecalis (GC 4553); type: functional
Micrococcus luteus = experiment: In vitro minimum inhibitory concentration against Micrococcus lutea (GC 4562); type: functional
Staphylococcus aureus [8] = experiment: In vitro minimum inhibitory concentration against Staphylococcus aureus (10strains, including MRSA); type: functional
Staphylococcus aureus [9] = experiment: In vitro minimum inhibitory concentration against Methicillin-resistant Staphylococcus aureus (GC 1131); type: functional
Staphylococcus aureus [10] = experiment: In vitro minimum inhibitory concentration against Methicillin-resistant Staphylococcus aureus (GC 4542); type: functional
Staphylococcus aureus [11] = experiment: In vitro minimum inhibitory concentration against Methicillin-resistant Staphylococcus aureus(GC 4541); type: functional
Staphylococcus aureus [12] = experiment: In vitro minimum inhibitory concentration against Methicillin-susceptible Staphylococcus aureus (GC 2216); type: functional
Staphylococcus aureus [13] = experiment: In vitro minimum inhibitory concentration against Methicillin-susceptible Staphylococcus aureus (GC 4543); type: functional
Staphylococcus aureus [14] = experiment: In vitro minimum inhibitory concentration against Methicillin-susceptible Staphylococcus aureus(GC 4544); type: functional
Staphylococcus aureus [15] = experiment: In vitro minimum inhibitory concentration against glycopeptide tntermediate Staphylococcus aureus (GC 3051); type: functional
Staphylococcus aureus [16] = experiment: In vitro minimum inhibitory concentration against glycopeptide tntermediate Staphylococcus aureus (GC 3066); type: functional
[17] = system: Staphylococcus haemolyticus; experiment: In vitro minimum inhibitory concentration against methicillin-resistant Coagulase-negative Staphylococci (MRCNS) (GC 4547)); type: functional
Streptococcus pneumoniae [18] = experiment: In vitro minimum inhibitory concentration against Penicillin resistant Streptococcus pneumoniae (GC 1894); type: functional
Streptococcus pneumoniae [19] = experiment: In vitro minimum inhibitory concentration against Penicillin susceptible Streptococcus pneumoniae (GC 6242); type: functional
Streptococcus pyogenes = experiment: In vitro minimum inhibitory concentration against Streptococcus pyogenes (GC 4563); type: functional
[20] = system: Staphylococcus haemolyticus; experiment: In vitro minimum inhibitory concentration against methicillin-resistant Coagulase-negative Staphylococci (MRCNS) hemolyticu (GC 4546)); type: functional
[21] = system: Staphylococcus haemolyticus; experiment: In vitro minimum inhibitory concentration against methicillin-susceptible Coagulase-negative Staphylococci (MSCNS) (GC 4549)); type: functional
[22] = system: Staphylococcus haemolyticus; experiment: In vitro minimum inhibitory concentration against methicillin-susceptible Coagulase-negative Staphylococci (MSCNS) (GC 4551); type: functional
[23] = system: Staphylococcus haemolyticus; experiment: In vitro minimum inhibitory concentration against methicillin-susceptible Coagulase-negative Staphylococci (MSCNS) (GC 6257); type: functional
Streptococcus = experiment: In vitro minimum inhibitory concentration against Streptococcus Species (5 strains, including PRSP); type: functional
Bacillus cereus = experiment: In vitro minimum inhibitory concentration against Bacillus cereus (GC 4561) assay organism; type: functional
[24] = system: Staphylococcus haemolyticus; experiment: In vitro minimum inhibitory concentration against methicillin-resistant Coagulase-negative Staphylococci (MRCNS) (GC 4548)); type: functional
Staphylococcus aureus [25] = experiment: In vitro minimum inhibitory concentration against Methicillin-susceptible Staphylococcus aureus(GC 4545); type: functional
Enterococcus faecalis [26] = experiment: In vitro minimum inhibitory concentration against vancomycin-susceptible Enterococcus faecalis (GC 4554); type: functional
Streptococcus agalactiae [27] = experiment: In vitro minimum inhibitory concentration against Streptococcus agalactiae (GC4564)
Enterococcus faecium [28] = experiment: In vitro minimum inhibitory concentration against vancomycin-resistant Enterococcus faecium (GC 2243)
Enterococcus faecium [29] = experiment: In vitro minimum inhibitory concentration against vancomycin-resistant Enterococcus faecium (GC 4558)
Enterococcus faecium [30] = experiment: In vitro minimum inhibitory concentration against vancomycin-susceptible Enterococcus faecium (GC 4556)
Enterococcus faecium [31] = experiment: In vitro minimum inhibitory concentration against vancomycin-susceptible Enterococcus faecium (GC 4557)
Streptococcus pneumoniae [32] = experiment: In vitro minimum inhibitory concentration against Penicillin susceptible Streptococcus pneumoniae (GC 4565)
Staphylococcus aureus [33] = experiment: In vitro minimum inhibitory concentration against Staphylococcus aureus; type: functional
Enterococcus faecium [34] = experiment: In vitro minimum inhibitory concentration against vancomycin-resistant Enterococcus faecium (GC 2243); type: functional
Enterococcus faecium [35] = experiment: In vitro minimum inhibitory concentration against vancomycin-resistant Enterococcus faecium (GC 4558); type: functional
Enterococcus faecium [36] = experiment: In vitro minimum inhibitory concentration against vancomycin-susceptible Enterococcus faecium (GC 4556); type: functional
Enterococcus faecium [37] = experiment: In vitro minimum inhibitory concentration against vancomycin-susceptible Enterococcus faecium (GC 4557); type: functional
Streptococcus agalactiae [38] = experiment: In vitro minimum inhibitory concentration against Streptococcus agalactiae (GC4564); type: functional
[39] = system: Staphylococcus haemolyticus; experiment: In vitro minimum inhibitory concentration against methicillin-resistant Coagulase-negative Staphylococci (MRCNS) (GC 4546); type: functional
[40] = system: Staphylococcus haemolyticus; experiment: In vitro minimum inhibitory concentration against methicillin-resistant Coagulase-negative Staphylococci (MRCNS) (GC 4547); type: functional
Streptococcus pneumoniae [41] = experiment: In vitro minimum inhibitory concentration against Penicillin susceptible Streptococcus pneumoniae (GC 4565); type: functional
[42] = system: Staphylococcus haemolyticus; experiment: In vitro minimum inhibitory concentration against methicillin-resistant Coagulase-negative Staphylococci (MRCNS) (GC 4548); type: functional
[43] = system: Staphylococcus haemolyticus; experiment: In vitro minimum inhibitory concentration against methicillin-susceptible Coagulase-negative Staphylococci (MSCNS) (GC 4549); type: functional

SMILES: C[C@@H](c1ccccc1)[C@@H]1NC(=O)CNC(=O)[C@H](CO)NC(=O)[C@@H]([C@@H](O)[C@@H]2CN=C(N)N2[C@H]2O[C@H](CO)[C@@H](O)[C@H](O)[C@@H]2O)NC(=O)[C@H]([C@H](O)[C@@H]2CN=C(N)N2)NC(=O)[C@@H](Cc2ccc3nc(-c4ccc(N(C)C)cc4)oc3c2)NC1=O
- MIC (Enterococcus sp.): 8 µg/mL (≈ 7.17 µM)
- MIC (Enterococcus faecalis [1]): 32 µg/mL (≈ 28.7 µM)
- MIC (Enterococcus faecalis [2]): 32 µg/mL (≈ 28.7 µM)
- MIC (Enterococcus faecalis [3]): 64 µg/mL (≈ 57.4 µM)
- MIC (Enterococcus faecalis [4]): 32 µg/mL (≈ 28.7 µM)
- MIC (Enterococcus faecalis [5]): 32 µg/mL (≈ 28.7 µM)
- MIC (Enterococcus faecalis [6]): 64 µg/mL (≈ 57.4 µM)
- MIC (Enterococcus faecalis [7]): 16 µg/mL (≈ 14.3 µM)
- MIC (Micrococcus luteus): 2 µg/mL (≈ 1.79 µM)
- MIC (Staphylococcus aureus [8]): 8 µg/mL (≈ 7.17 µM)
- MIC (Staphylococcus aureus [9]): 8 µg/mL (≈ 7.17 µM)
- MIC (Staphylococcus aureus [10]): 8 µg/mL (≈ 7.17 µM)
- MIC (Staphylococcus aureus [11]): 8 µg/mL (≈ 7.17 µM)
- MIC (Staphylococcus aureus [12]): 8 µg/mL (≈ 7.17 µM)
- MIC (Staphylococcus aureus [13]): 8 µg/mL (≈ 7.17 µM)
- MIC (Staphylococcus aureus [14]): 8 µg/mL (≈ 7.17 µM)
- MIC (Staphylococcus aureus [15]): 8 µg/mL (≈ 7.17 µM)
- MIC (Staphylococcus aureus [16]): 8 µg/mL (≈ 7.17 µM)
- MIC [17]: 4 µg/mL (≈ 3.59 µM)
- MIC (Streptococcus pneumoniae [18]): 32 µg/mL (≈ 28.7 µM)
- MIC (Streptococcus pneumoniae [19]): 32 µg/mL (≈ 28.7 µM)
- MIC (Streptococcus pyogenes): 16 µg/mL (≈ 14.3 µM)
- MIC [20]: 4 µg/mL (≈ 3.59 µM)
- MIC [21]: 2 µg/mL (≈ 1.79 µM)
- MIC [22]: 8 µg/mL (≈ 7.17 µM)
- MIC [23]: 4 µg/mL (≈ 3.59 µM)
- MIC (Streptococcus): 16 µg/mL (≈ 14.3 µM)
- MIC (Bacillus cereus): 32 µg/mL (≈ 28.7 µM)
- MIC [24]: 4 µg/mL (≈ 3.59 µM)
- MIC (Staphylococcus aureus [25]): 8 µg/mL (≈ 7.17 µM)
- MIC (Enterococcus faecalis [26]): 32 µg/mL (≈ 28.7 µM)
- MIC (Streptococcus agalactiae [27]): 32 µg/mL (≈ 28.7 µM)
- MIC (Enterococcus faecium [28]): 16 µg/mL (≈ 14.3 µM)
- MIC (Enterococcus faecium [29]): 16 µg/mL (≈ 14.3 µM)
- MIC (Enterococcus faecium [30]): 64 µg/mL (≈ 57.4 µM)
- MIC (Enterococcus faecium [31]): 8 µg/mL (≈ 7.17 µM)
- MIC (Streptococcus pneumoniae [32]): 32 µg/mL (≈ 28.7 µM)

SMILES: C[C@@H](c1ccccc1)[C@@H]1NC(=O)CNC(=O)[C@H](CO)NC(=O)[C@@H]([C@@H](O)[C@@H]2CN=C(N)N2[C@H]2O[C@H](CO)[C@@H](O)[C@H](O)[C@@H]2O)NC(=O)[C@H]([C@H](O)[C@@H]2CN=C(N)N2)NC(=O)[C@@H](Cc2ccc(O)cc2)NC1=O
- MIC (Enterococcus sp.): 32 µg/mL (≈ 33 µM)
- MIC (Staphylococcus aureus [33]): 64 µg/mL (≈ 65.9 µM)

SMILES: CCN1CCN(C(=O)N[C@@H](C(=O)N[C@@H]2C(=O)N3[C@@H]2SC(C)(C)[C@@H]3C(=O)O)c2ccccc2)C(=O)C1=O [PIPERACILLIN]
- MIC (Enterococcus sp.): 0.25 µg/mL (≈ 0.483 µM)
- MIC (Enterococcus faecium [34]): 64 µg/mL (≈ 124 µM)
- MIC (Enterococcus faecium [35]): > 64 µg/mL
- MIC (Enterococcus faecium [36]): 1 µg/mL (≈ 1.93 µM)
- MIC (Enterococcus faecium [37]): 0.12 µg/mL (≈ 0.232 µM)
- MIC (Enterococcus faecalis [1]): 1 µg/mL (≈ 1.93 µM)
- MIC (Enterococcus faecalis [2]): 2 µg/mL (≈ 3.86 µM)
- MIC (Enterococcus faecalis [3]): 2 µg/mL (≈ 3.86 µM)
- MIC (Enterococcus faecalis [4]): 2 µg/mL (≈ 3.86 µM)
- MIC (Enterococcus faecalis [5]): 2 µg/mL (≈ 3.86 µM)
- MIC (Enterococcus faecalis [6]): 2 µg/mL (≈ 3.86 µM)
- MIC (Enterococcus faecalis [7]): > 64 µg/mL
- MIC (Micrococcus luteus): < 0.06 µg/mL
- MIC (Staphylococcus aureus [8]): 0.5 µg/mL (≈ 0.966 µM)
- MIC (Streptococcus agalactiae [38]): 0.12 µg/mL (≈ 0.232 µM)
- MIC (Staphylococcus aureus [9]): > 64 µg/mL
- MIC (Staphylococcus aureus [10]): 64 µg/mL (≈ 124 µM)
- MIC (Staphylococcus aureus [11]): > 64 µg/mL
- MIC (Staphylococcus aureus [12]): 4 µg/mL (≈ 7.73 µM)
- MIC (Staphylococcus aureus [13]): 1 µg/mL (≈ 1.93 µM)
- MIC (Staphylococcus aureus [14]): 4 µg/mL (≈ 7.73 µM)
- MIC (Staphylococcus aureus [15]): 64 µg/mL (≈ 124 µM)
- MIC (Staphylococcus aureus [16]): 0.5 µg/mL (≈ 0.966 µM)
- MIC [39]: > 64 µg/mL
- MIC [40]: > 64 µg/mL
- MIC (Streptococcus pneumoniae [18]): 2 µg/mL (≈ 3.86 µM)
- MIC (Streptococcus pneumoniae [41]): < 0.006 µg/mL
- MIC (Streptococcus pneumoniae [19]): < 0.06 µg/mL
- MIC [42]: 16 µg/mL (≈ 30.9 µM)
- MIC (Streptococcus pyogenes): < 0.006 µg/mL
- MIC [43]: 32 µg/mL (≈ 61.8 µM)
- MIC [22]: 4 µg/mL (≈ 7.73 µM)
- MIC [23]: 4 µg/mL (≈ 7.73 µM)
- MIC (Streptococcus): < 0.12 µg/mL
- MIC (Bacillus cereus): 1 µg/mL (≈ 1.93 µM)
- MIC (Staphylococcus aureus [25]): 8 µg/mL (≈ 15.5 µM)
- MIC (Enterococcus faecalis [26]): 1 µg/mL (≈ 1.93 µM)
